Data on 38 compounds can be found in patent publication US9896418B2, “Aryl ethers and uses thereof” (Peloton Therapeutics, Inc., priority 2013, dated 2018).

This test concerns HIF-2α HIS TAG-PASB Domain. Description: HIF-2α Scintillation Proximity Assay (SPA). The class given is binding. The procedure:
The percent inhibition was determined and IC50 values were calculated using the Dotmatics system based on the following equation: % inhibition=[(high control−sample)/(high control−low control)]×100.
For orientation: Scintillation proximity formats need no separation of bound from free tracer.

`CCOC(=O)/C=C/c1c(S(=O)(=O)C(F)(F)F)ccc(Oc2cc(F)cc(C#N)c2)c1C` [Compound 148, Ethyl (E)-3-(3-(3-cyano-5-fluorophenoxy)-2-methyl-6-((trifluoromethyl)sulfonyl)phenyl)acrylate] gave a half-inhibitory concentration (IC50) of 0.22 µM.

In turn, `N#Cc1cncc(Oc2ccc(S(=O)(=O)C(F)F)c3c2CC[C@H]3O)c1` [Compound 4, (R)-5-((7-((Difluoromethyl)sulfonyl)-1-hydroxy-2,3-dihydro-1H-inden-4-yl)oxy)nicotinonitrile] displayed an IC50 of 3.3 µM.

For the compound `N#Cc1cncc(Oc2ccc(S(=O)(=O)CF)c3c2[C@@H](F)C(F)(F)[C@H]3O)c1` [Compound 344, 5-(((1S,3R)-2,2,3-trifluoro-7-((fluoromethyl)sulfonyl)-1-hydroxy-2,3-dihydro-1H-inden-4-yl)oxy)nicotinonitrile], half-maximal inhibition (IC50) was put at 0.0067 µM.

Compound `NS(=O)(=O)c1ccc(Oc2cc(F)cc(F)c2)c2c1C(O)CC2` (centres unmarked) [Compound 257, 7-(3,5-Difluorophenoxy)-3-hydroxy-2,3-dihydro-1H-indene-4-sulfonamide] yielded an IC50 of 1.9 µM. The result for `O=S(=O)(CF)c1ccc(Oc2cncc(Cl)c2)c2c1[C@H](O)C(F)(F)C2` [Example 187, (S)-4-((5-Chloropyridin-3-yl)oxy)-2,2-difluoro-7-((fluoromethyl)sulfonyl)-2,3-dihydro-1H-inden-1-ol] reads 0.079 µM; that for `NC(=O)c1cc(S(=O)(=O)C(F)(F)F)ccc1Oc1cc(F)cc(Cl)c1` [Compound 125, 2-(3-Chloro-5-fluorophenoxy)-5-((trifluoromethyl)sulfonyl)benzamide], 8 µM. The result for `O=[N+]([O-])c1c(Oc2cc(F)cc(Cl)c2)ccc(C(F)(F)F)c1Cl` [Compound 203, 2-Chloro-4-(3-chloro-5-fluorophenoxy)-3-nitro-1-(trifluoromethyl)benzene] reads 0.077 µM.

In turn, `CS(=O)(=O)c1ccc(Oc2cc(F)cc(C#N)c2)c2c1[C@H](O)C(F)(F)[C@H]2O` [Compound 311, 3-[(1S,3S)-2,2-difluoro-1,3-dihydroxy-7-methylsulfonyl-indan-4-yl]oxy-5-fluoro-benzonitrile] displayed an IC50 of 8.7 µM. The result for `CS(=O)(=NC#N)c1ccc(Oc2cc(F)cc(C#N)c2)c2c1[C@H](O)C(F)(F)[C@@H]2F` (single isomer, unassigned) [Example 316] reads < 0.005 µM.

Consider `Cc1c(Oc2cc(F)cc(C#N)c2)ccc(S(=O)(=O)C(F)(F)F)c1Br` [Compound 141, 3-[3-Bromo-2-methyl-4-(trifluoromethylsulfonyl)phenoxy]-5-fluoro-benzonitrile], for which half-maximal inhibition (IC50) was put at 0.065 µM. `O=S(=O)(c1ccc(Oc2cc(F)c(F)c3[nH]ncc23)c2c1C(O)C(F)(F)C2)C(F)(F)F` (centres unmarked) [Compound 261, 4-((6,7-Difluoro-1H-indazol-4-yl)oxy)-2,2-difluoro-7-((trifluoromethyl)sulfonyl)-2,3-dihydro-1H-inden-1-ol]: half-maximal inhibition (IC50) was put at 0.64 µM. For `CS(=O)(=O)c1ccc(Oc2cncc(C#N)c2)c2c1[C@H](O)C(F)(F)C2` [Compound 325, (S)-5-((2,2-Difluoro-1-hydroxy-7-(methylsulfonyl)-2,3-dihydro-1H-inden-4-yl)oxy)nicotinonitrile], the IC50 amounted to 0.18 µM. With `Cc1c([S+]([O-])C(F)F)ccc(Oc2cc(F)cc(Cl)c2)c1C#N` (centres unmarked) [Compound 37, 6-(3-Chloro-5-fluorophenoxy)-3-((difluoromethyl)sulfinyl)-2-methylbenzonitrile] the figure was 6.7 µM. With `NCc1c(S(=O)(=O)C(F)F)ccc(Oc2cc(F)cc(Cl)c2)c1Br` [Compound 85, (2-Bromo-3-(3-chloro-5-fluorophenoxy)-6-((difluoromethyl)sulfonyl)phenyl)methanamine] the figure was 2.9 µM; with `N#Cc1cccc(Oc2ccc(S(=O)(=O)C(F)F)c3c2CC(F)(F)[C@H]3O)c1` [Example 236, (S)-3-((7-((difluoromethyl)sulfonyl)-2,2-difluoro-1-hydroxy-2,3-dihydro-1H-inden-4-yl)oxy)benzonitrile], < 0.005 µM. The result for `CS(=O)(=NC#N)c1ccc(Oc2cc(F)cc(C#N)c2)c2c1[C@H](O)C(F)(F)C2` (some centres unmarked) [Example 240] reads 0.026 µM; that for `Cc1cc(Oc2cc(F)cc(C#N)c2)c2c(c1S(C)(=O)=O)C(O)C(F)(F)C2` (centres unmarked) [Compound 213, 3-((2,2-Difluoro-1-hydroxy-6-methyl-7-(methylsulfonyl)-2,3-dihydro-1H-inden-4-yl)oxy)-5-fluorobenzonitrile], 0.8 µM. `COC(=O)/C=C/c1c(S(=O)(=O)C(F)(F)F)ccc(Oc2cc(F)cc(C#N)c2)c1C` [Compound 147, Methyl (E)-3-[3-(3-cyano-5-fluoro-phenoxy)-2-methyl-6-(trifluoromethylsulfonyl)phenyl]prop-2-enoate] came in with a 50% inhibitory concentration (IC50) of 0.11 µM. With `CS(=O)(=O)c1ccc(Oc2cc(F)cc(C#N)c2)c2c1C(O)CCC2` (centres unmarked) [Compound 95, 3-Fluoro-5-((5-hydroxy-4-(methylsulfonyl)-5,6,7,8-tetrahydronaphthalen-1-yl)oxy)benzonitrile] the figure was 3.6 µM. The result for `O=[N+]([O-])c1c(Oc2cccc(Cl)c2)ccc(C(F)(F)F)c1Cl` [Compound 204, 2-Chloro-4-(3-chlorophenoxy)-3-nitro-1-(trifluoromethyl)benzene 1,3-dichloro-2-nitro-4-(trifluoromethyl)benzene] reads 0.21 µM.

`O=S(=O)(c1ccc(Oc2cc(Cl)c[n+]([O-])c2)c2c1[C@H](O)C(F)(F)C2)C(F)(F)F` [Example 260, (S)-3-Chloro-5-((2,2-difluoro-1-hydroxy-7-((trifluoromethyl)sulfonyl)-2,3-dihydro-1H-inden-4-yl)oxy)pyridine 1-oxide] showed an IC50 of 0.066 µM. `O=S(=O)(c1ccc(Oc2cc(Cl)cc(Cl)c2)c(Br)c1)C(F)(F)F` [Compound 172, 2-Bromo-1-(3,5-dichlorophenoxy)-4-((trifluoromethyl)sulfonyl)benzene]: 0.31 µM corresponded to half-maximal inhibition (IC50). The result for `O=S(=O)(c1ccc(Oc2cc(F)cc(Cl)c2)c(Br)c1C=NO)C(F)(F)F` [Compound 107, 2-Bromo-3-(3-chloro-5-fluorophenoxy)-6-((trifluoromethyl)sulfonyl)benzaldehyde oxime] reads 0.16 µM; that for “[[(1R,3R)-7-(3-cyano-5-fluoro-phenoxy)-1,2,2-trifluoro-3-hydroxy-indan-4-yl]-methyl-oxo-λ^6-sulfanylidene]cyanamide [Compound 322]”, 9.8 µM. The result for “(1R,3S)-4-(3-chloro-5-fluorophenoxy)-3-(hydroxymethyl)-7-((trifluoromethyl)sulfonyl)-2,3-dihydro-1H-inden-1-ol [Compound 281]” reads 0.73 µM.

As to `O=S(=O)(c1ccc(Oc2cc(F)cc(F)c2)c2c1C(O)C(F)(F)C2)C(F)F` (centres unmarked) [Compound 9, 7-(difluoromethylsulfonyl)-4-(3,5-difluorophenoxy)-2,2-difluoro-indan-1-ol], the IC50 is < 0.005 µM. The result for `NS(=O)(=O)c1ccc(Oc2cncc(F)c2)c2c1[C@H](O)C(F)(F)[C@@H]2F` [Compound 341, (1R,3S)-1,2,2-trifluoro-7-[(5-fluoro-3-pyridyl)oxy]-3-hydroxy-indane-4-sulfonamide] reads 0.018 µM; that for `O=C1c2c(S(=O)(=O)C(F)F)ccc(Oc3ccc(F)c(Br)c3)c2CC1(F)F` [Compound 193, 4-(3-Bromo-4-fluorophenoxy)-7-((difluoromethyl)sulfonyl)-2,2-difluoro-2,3-dihydro-1H-inden-1-one], 0.9 µM. Consider `O=S(=O)(c1ccc(Oc2ccc(F)cc2)c2c1C(O)CC2)C(F)(F)F` (centres unmarked) [Compound 212, 4-(4-Fluorophenoxy)-7-((trifluoromethyl)sulfonyl)-2,3-dihydro-1H-inden-1-ol], for which the IC50 came to 0.67 µM. With `Cc1cc(S(=O)(=O)C(F)F)ccc1Oc1cc(F)cc(Cl)c1` [Compound 135, 1-(3-Chloro-5-fluoro-phenoxy)-4-(difluoromethylsulfonyl)-2-methyl-benzene] the figure was 0.37 µM; with `CS(=O)(=O)c1ccc(Oc2cncc(Cl)c2)c2c1[C@H](O)C(F)(F)C2` [Example 115, (S)-4-((5-Chloropyridin-3-yl)oxy)-2,2-difluoro-7-(methylsulfonyl)-2,3-dihydro-1H-inden-1-ol], 0.35 µM; with `N#Cc1cc(S(=O)(=O)C(F)F)ccc1Oc1cc(F)cc(Cl)c1` [Compound 133, 2-(3-Chloro-5-fluorophenoxy)-5-((difluoromethyl)sulfonyl)benzonitrile], 0.5 µM. Turning to `O=S(=O)(c1cc(C(F)(F)F)ccc1Oc1cc(F)cc(Cl)c1)C(F)(F)F` [Compound 129, 1-(3-Chloro-5-fluorophenoxy)-4-(trifluoromethyl)-2-((trifluoromethyl)sulfonyl)benzene], half-maximal inhibition (IC50) required 2.2 µM. Consider `N#Cc1c(Oc2cc(F)cc(Cl)c2)ccc(S(=O)(=O)C(F)(F)F)c1NCCO` [Compound 154, 6-(3-Chloro-5-fluoro-phenoxy)-2-(2-hydroxyethylamino)-3-(trifluoromethylsulfonyl)benzonitrile], for which the midpoint of inhibition, the IC50, lay at 11.7 µM. The result for `CS(=O)(=O)c1ccc(Oc2cc(F)cc(C#N)c2)c2c1[C@H](O)C(F)(F)[C@@H]2O` [Compound 312, 3-[(1S,3R)-2,2-difluoro-1,3-dihydroxy-7-methylsulfonyl-indan-4-yl]oxy-5-fluoro-benzonitrile] reads 0.15 µM; that for `O=S(=O)(c1ccc(Oc2ccc(F)c(Cl)c2)c2c1[C@H](O)C(F)(F)C2)C(F)(F)F` [Example 221, (S)-4-(3-Chloro-4-fluorophenoxy)-2,2-difluoro-7-((trifluoromethyl)sulfonyl)-2,3-dihydro-1H-inden-1-ol], 0.029 µM. The result for `N#Cc1cc(F)cc(Oc2ccc(S(=O)(=O)C(F)F)c3c2CC(F)(F)[C@H]3N)c1` [Compound 207, (S)-3-((1-Amino-7-((difluoromethyl)sulfonyl)-2,2-difluoro-2,3-dihydro-1H-inden-4-yl)oxy)-5-fluorobenzonitrile] reads 0.5 µM; that for `O=S(=O)(c1ccc(Oc2cc(F)cc(Cl)c2)c(CO)c1)C(F)(F)F` [Compound 122, (2-(3-Chloro-5-fluorophenoxy)-5-((trifluoromethyl)sulfonyl)phenyl)methanol], 1.7 µM.

One may read the IC50 as the concentration needed to halve the response being measured. Read a low IC50 as inhibition by little substance.
